Reference: patent US10787472B2, “Prodrugs of pyridone amides useful as modulators of sodium channels” (VERTEX PHARMACEUTICALS INCORPORATED, priority 2013, dated 2020)

Assays:
[1] = Rat oral pharmacokinetic study; format: in vivo, Sprague Dawley rats; conditions: for Cmax: male rat, analyte 9a in plasma, 5% TPGS/5% PVP-K30/50 mM Citrate pH5, mean ± SD, N=3
Experimental: (§1) Before extraction, plasma samples were diluted using blank plasma at an appropriate dilution factor, as necessary, depending on the dose level. […] After centrifugation, the supernatant extract (10 μL) was injected onto the LC/MS/MS system. The HPLC system included a Phenomenex Synergy Kinetix C8 column, 2.6 micron, 2.0 mm diameter×75 mm long eluted with a gradient mobile phase consisting of 0.1% formic acid in water or in acetonitrile.
(§2) The analytes were detected by MS/MS with Electrospray Ionization (ESI) in the mode of multiple reaction monitoring (MRM). […] The intra-day and inter-day assay accuracy was within 20% of the nominal values. The intra- and inter-day assay variability was ≤20%.
(§3) Key pharmacokinetic parameters such as AUCall, AUCextra, Cmax, tmax, Cl, Vss and t1/2 were determined.
(§4) Descriptive statistical data of pharmacokinetic parameters were calculated, including the mean, standard deviation (SD), using Watson LIMS version 7.4 SP3 or Microsoft Excel 2000.
Groups of male and female Sprague Dawley rats (n=3 per dose group) were administered single nominal oral doses of 10, 100, 400, 640, 1000 mg/kg (for males) and 30, 100, 300, 640, 1000 mg/kg (for females) of compound 9 by gavage. Compound 9 was formulated in either 30% PEG400 and 10% TPGS in water or 5% TPGS, 5% PVP-K30 in 50 mM Citrate, pH 5. Animals had free access to food and water before and after dosing. Blood samples (approximately 0.25 mL each) were collected via a carotid artery catheter prior to dosing and at 0.25, 0.5, 1, 2, 4, 8, 12, 24, 48 and 72 hours post dose. Each blood sample was collected into a tube that was kept on wet ice and contained potassium EDTA as the anticoagulant. Plasma was separated and stored at approximately −70° C. until analysis.

[2] = Rat IV pharmacokinetic study; format: in vivo, Sprague Dawley rats; conditions: male rat, after IV bolus 1 mg/kg compound 9; LLOQ 2.5 ng/mL
Experimental: as §1, §2, §3, §4
Male Sprague Dawley rats (n=3) were administered a single nominal IV bolus dose of 1 mg/kg of compound 9 via a jugular vein cannula. […] Animals had free access to food and water before and after dosing. Blood samples (approximately 0.25 mL each) were collected via a carotid artery catheter prior to dosing and at 5 min, 10 min, 0.25, 0.5, 1, 2, 4, 8, 12, 24 hours post dose. […]

[3] = Monkey oral pharmacokinetic study; format: in vivo, cynomolgus monkeys
Experimental: as §1, §2, §3, §4
Male or female cynomolgus monkeys (n=3 per dose group) were administered single nominal PO doses of 10, 40, 100, 300, 500, 750 and 1000 mg/kg of compound 9 by gavage. Compound 9 was formulated in 30% PEG400 and 10% TPGS in water or 5% TPGS, 5% PVP-K30 in 50 mM Citrate, pH 5. Animals were fasted overnight prior to dosing, and were fed two hours post dose. Water was available before and after dosing. […]

Aqueous solubility study = format: physicochemical; conditions: ambient conditions, 24 hours
Experimental: The aqueous solubility of compound 9 and 9a were determined according to the following procedure. Solubility data was determined at ambient conditions by equilibrating the compound with water on a shaking bed for 24 hours, followed by centrifugation and separation of the saturated solutions. The pH value of each media was measured before centrifugation, and the saturated solutions were assayed by HPLC.

[4] = Chemical and physical stability of crystalline Form B (XRPD, HPLC impurity profile, appearance); format: physicochemical
Excerpt: Chemically and physically stable means no changes were observed on the X-ray powder diffraction and HPLC impurity profiles (e.g., less than 0.2% variance) and there were no observed changes in physical appearance of the samples.

## Cc1cc(F)ccc1Oc1cc(C(F)(F)F)ccc1C(=O)Nc1ccn(COP(=O)(O)O)c(=O)c1 [Compound 9, (4-(2-(4-fluoro-2-methylphenoxy)-4-(trifluoromethyl)benzamido)-2-oxopyridin-1(2H)-yl)methyl dihydrogen phosphate]
[1]; rat, after PO compound 9 10-1000 mg/kg, LLOQ 2.5 to 25 ng/mL
  plasma concentrations of compound 9: below LLOQ for the majority of the samples
[1]; rats
  in vivo conversion of prodrug to parent compound: converted in vivo into compound 9a
[2]
  plasma concentrations of compound 9: below LLOQ for the majority of the samples
[3]; monkey, after PO compound 9 10-1000 mg/kg, LLOQ 10.0 to 25.0 ng/mL
  plasma concentrations of compound 9: below LLOQ for the majority of the samples
[3]; monkeys
  in vivo conversion of prodrug to parent compound: converted in vivo into compound 9a

## Cc1cc(F)ccc1Oc1cc(C(F)(F)F)ccc1C(=O)Nc1cc[nH]c(=O)c1 [Compound 9a, 2-(4-fluoro-2-methylphenoxy)-N-(2-oxo-1,2-dihydropyridin-4-yl)-4-(trifluoromethyl)benzamide]
[1]; Sprague-Dawley, compound 9 PO 100 mg/kg
  Cmax: 1670 ± 1.9 ng/mL
[1]; compound 9 PO 1000 mg/kg
  Cmax: 4540 ± 910 ng/mL
Aqueous solubility study; pH 1.2, crystalline
  Solubility: <1 µg/mL
Aqueous solubility study; water, pH 6.0, crystalline
  Solubility: <1 µg/mL

## Cc1cc(F)ccc1Oc1cc(C(F)(F)F)ccc1C(=O)Nc1ccn(COP(=O)(O)O)c(=O)c1 [crystalline Form B, (4-(2-(4-fluoro-2-methylphenoxy)-4-(trifluoromethyl)benzamido)-2-oxopyridin-1(2H)-yl)methyl dihydrogen phosphate]
[4]; 5° C./dry, 40° C./dry, 25° C. with RH up to 60%, 40° C. with RH up to 75%
  chemical and physical stability: chemically and physically stable for at least one month
[4]; open dish 40° C., 40° C./RH up to 75%, 25° C./RH up to 60%, closed dish 5° C. with desiccator
  chemical and physical stability: chemically and physically stable for at least three months
